# Assay results: the Deep4Chem optical property database
# Test: solvent given as SMILES
# Conditions: in C1CCCCC1
row,SMILES,emission maximum
1,COc1cc2c3c(c4cc(OC)c(OC)c(OC)c4c2c(OC)c1OC)=[N+]1C(=C(c2c(C)cc(C)cc2C)c2cc4c5cc(OC)c(OC)c(OC)c5c5c(OC)c(OC)c(OC)cc5c4n2[B-]1(F)F)C=3,749 nm
2,CC(C)(C)[Si](C)(C)c1cccc2ccccc12,329 nm

# Same assay, conditions: in C1CCOC1
row,SMILES,emission maximum
1,COc1cc2c3c(c4cc(OC)c(OC)c(OC)c4c2c(OC)c1OC)=[N+]1C(=C(c2c(C)cc(C)cc2C)c2cc4c5cc(OC)c(OC)c(OC)c5c5c(OC)c(OC)c(OC)cc5c4n2[B-]1(F)F)C=3,763 nm
2,CC(=O)O[B-]1(OC(C)=O)OC(/C=C/c2ccc(C)cc2)=CC(/C=C/c2ccc(C)cc2)=[O+]1,484 nm
3,CCCCCCCCCCn1c(-c2cc(-c3nc4ccc(C)cc4n3CCCCCCCCCC)cc(-c3nc4ccc(C)cc4n3CCCCCCCCCC)c2)nc2ccc(C)cc21,379.1 nm
4,CCCCCCCCN1c2ccc(C#Cc3ccc(OC)cc3)cc2Sc2cc(C=O)ccc21,512 nm

# Same assay, conditions: in C1COCCO1
row,emission maximum,SMILES
1,359 nm,Nc1ncnc2c1c(-c1ccc3ccccc3c1)nn2[C@H]1C[C@H](O)[C@@H](CO)O1

# Same assay, conditions: in CC#N
row,SMILES,emission maximum
1,COc1cc2c3c(c4cc(OC)c(OC)c(OC)c4c2c(OC)c1OC)=[N+]1C(=C(c2c(C)cc(C)cc2C)c2cc4c5cc(OC)c(OC)c(OC)c5c5c(OC)c(OC)c(OC)cc5c4n2[B-]1(F)F)C=3,755 nm
2,CC(=O)O[B-]1(OC(C)=O)OC(/C=C/c2ccc(C)cc2)=CC(/C=C/c2ccc(C)cc2)=[O+]1,493 nm
3,Cc1ccc(-n2cccc2)cc1,312 nm
4,O=c1[nH]c(=O)c2nc3ccccc3nc2[nH]1,432 nm
5,CC(C)(C)c1ccc2c(c1)c1cc(C(C)(C)C)ccc1n2-c1ccc(C#Cc2ccc(C#Cc3ccc(-n4c5ccc(C(C)(C)C)cc5c5cc(C(C)(C)C)ccc54)cc3)cc2)cc1,470 nm
6,CCCCCCCCN1c2ccc(C#Cc3ccc(OC)cc3)cc2Sc2cc(C=O)ccc21,538 nm
7,N#C/C(=C\c1ccc(C#N)cc1)c1nc(-c2ccccc2)cs1,501 nm
8,Nc1ncnc2c1c(-c1ccc3ccccc3c1)nn2[C@H]1C[C@H](O)[C@@H](CO)O1,360 nm

# Same assay, conditions: in CC(C)=O
row,SMILES,emission maximum
1,CC(=O)O[B-]1(OC(C)=O)OC(/C=C/c2ccc(C)cc2)=CC(/C=C/c2ccc(C)cc2)=[O+]1,489 nm

# Same assay, conditions: in CC(C)O
row,emission maximum,SMILES
1,363 nm,Nc1ncnc2c1c(-c1ccc3ccccc3c1)nn2[C@H]1C[C@H](O)[C@@H](CO)O1

# Same assay, conditions: in CCCCC
row,SMILES,emission maximum
1,CC(C)(C)c1ccc2c(c1)c1cc(C(C)(C)C)ccc1n2-c1ccc(C#Cc2ccc(C#Cc3ccc(-n4c5ccc(C(C)(C)C)cc5c5cc(C(C)(C)C)ccc54)cc3)cc2)cc1,385 nm

# Same assay, conditions: in CCCCCC
row,SMILES,emission maximum
1,Cc1ccc(-n2cccc2)cc1,310 nm
2,CCCCCCCCN1c2ccc(C#Cc3ccc(OC)cc3)cc2Sc2cc(C=O)ccc21,494 nm

# Same assay, conditions: in CCO
row,emission maximum,SMILES
1,412 nm,Cc1nc2cc3c4c(cccc4c2o1)C(=O)OC3=O
2,364 nm,Nc1ncnc2c1c(-c1ccc3ccccc3c1)nn2[C@H]1C[C@H](O)[C@@H](CO)O1

row,SMILES,emission maximum
1,N#C/C(=C\c1ccc(C#N)cc1)c1nc(-c2ccccc2)cs1,500 nm

# Same assay, conditions: in CCOC(C)=O
row,emission maximum,SMILES
1,358 nm,Nc1ncnc2c1c(-c1ccc3ccccc3c1)nn2[C@H]1C[C@H](O)[C@@H](CO)O1

# Same assay, conditions: in CN(C)C=O
row,emission maximum,SMILES
1,604 nm,C=CCNS(=O)(=O)c1ccc2c(c1)C(=O)/C(=C1\Sc3ccc(S(=O)(=O)NCC=C)cc3C1=O)S2
2,361 nm,Nc1ncnc2c1c(-c1ccc3ccccc3c1)nn2[C@H]1C[C@H](O)[C@@H](CO)O1

row,SMILES,emission maximum
1,N#C/C(=C\c1ccc(C#N)cc1)c1nc(-c2ccccc2)cs1,507 nm

# Same assay, conditions: in CO
row,SMILES,emission maximum
1,CC(C)(C)c1ccc2c(c1)c1cc(C(C)(C)C)ccc1n2-c1ccc(C#Cc2ccc(C#Cc3ccc(-n4c5ccc(C(C)(C)C)cc5c5cc(C(C)(C)C)ccc54)cc3)cc2)cc1,453 nm
2,CCCCCCCCN1c2ccc(C#Cc3ccc(OC)cc3)cc2Sc2cc(C=O)ccc21,464 nm
3,Nc1ncnc2c1c(-c1ccc3ccccc3c1)nn2[C@H]1C[C@H](O)[C@@H](CO)O1,362 nm

# Same assay, conditions: in CS(C)=O
row,emission maximum,SMILES
1,625 nm,C=CCNS(=O)(=O)c1ccc2c(c1)C(=O)/C(=C1\Sc3ccc(S(=O)(=O)NCC=C)cc3C1=O)S2
2,439 nm,CCOC(=O)C1=C(N)n2c(=O)c3ccccc3c(=O)n2C1c1cccs1 (configuration not stated)
3,363 nm,Nc1ncnc2c1c(-c1ccc3ccccc3c1)nn2[C@H]1C[C@H](O)[C@@H](CO)O1

row,SMILES,emission maximum
1,CC(=O)O[B-]1(OC(C)=O)OC(/C=C/c2ccc(C)cc2)=CC(/C=C/c2ccc(C)cc2)=[O+]1,499 nm
2,CCCCCCCCN1c2ccc(C#Cc3ccc(OC)cc3)cc2Sc2cc(C=O)ccc21,524 nm

# Same assay, conditions: in Cc1ccccc1
row,SMILES,emission maximum
1,COc1cc2c3c(c4cc(OC)c(OC)c(OC)c4c2c(OC)c1OC)=[N+]1C(=C(c2c(C)cc(C)cc2C)c2cc4c5cc(OC)c(OC)c(OC)c5c5c(OC)c(OC)c(OC)cc5c4n2[B-]1(F)F)C=3,767 nm
2,CC(=O)O[B-]1(OC(C)=O)OC(/C=C/c2ccc(C)cc2)=CC(/C=C/c2ccc(C)cc2)=[O+]1,481 nm
3,Fc1cccc(F)c1[B-]1(c2c(F)cccc2F)Oc2c(ccc3c4c(ccc23)C=[N+](c2ccccc2)[B-](c2c(F)cccc2F)(c2c(F)cccc2F)O4)C=[N+]1c1ccccc1,592 nm
4,c1ccc2c(c1)CCc1ccccc1N2c1c2ccccc2cc2ccccc12,507 nm
5,CC(C)(C)c1ccc2c(c1)c1cc(C(C)(C)C)ccc1n2-c1ccc(C#Cc2ccc(C#Cc3ccc(-n4c5ccc(C(C)(C)C)cc5c5cc(C(C)(C)C)ccc54)cc3)cc2)cc1,400 nm
6,CCCCCCCCN1c2ccc(C#Cc3ccc(OC)cc3)cc2Sc2cc(C=O)ccc21,510 nm
7,N#C/C(=C\c1ccc(C#N)cc1)c1nc(-c2ccccc2)cs1,472 nm
8,CC(C)(C)c1ccc2c(c1)B1c3cc(C(C)(C)C)ccc3Oc3cc(N4c5ccccc5C(C)(C)c5ccccc54)cc(c31)O2,458 nm

# Same assay, conditions: in ClC(Cl)Cl
row,SMILES,emission maximum
1,CC(=O)O[B-]1(OC(C)=O)OC(/C=C/c2ccc(C)cc2)=CC(/C=C/c2ccc(C)cc2)=[O+]1,491 nm
2,CC(C)(C)c1ccc2c(c1)c1cc(C(C)(C)C)ccc1n2-c1ccc(C#Cc2ccc(C#Cc3ccc(-n4c5ccc(C(C)(C)C)cc5c5cc(C(C)(C)C)ccc54)cc3)cc2)cc1,419 nm
3,CCCCCCCCN1c2ccc(C#Cc3ccc(OC)cc3)cc2Sc2cc(C=O)ccc21,524 nm

# Same assay, conditions: in ClCCl
row,SMILES,emission maximum
1,COc1cc2c3c(c4cc(OC)c(OC)c(OC)c4c2c(OC)c1OC)=[N+]1C(=C(c2c(C)cc(C)cc2C)c2cc4c5cc(OC)c(OC)c(OC)c5c5c(OC)c(OC)c(OC)cc5c4n2[B-]1(F)F)C=3,771 nm
2,CC(=O)O[B-]1(OC(C)=O)OC(/C=C/c2ccc(C)cc2)=CC(/C=C/c2ccc(C)cc2)=[O+]1,492 nm
3,CC1CCC(=CS/C=C/c2ccc(-c3ccc(/C=C/SC=C4CCC(C)CC4)cc3)cc2)CC1 (configuration not stated),432 nm
4,Fc1cccc(F)c1[B-]1(c2c(F)cccc2F)Oc2c(ccc3c4c(ccc23)C=[N+](c2ccccc2)[B-](c2c(F)cccc2F)(c2c(F)cccc2F)O4)C=[N+]1c1ccccc1,585 nm
5,CC(C)(C)c1ccc2c(c1)c1cc(C(C)(C)C)ccc1n2-c1ccc(C#Cc2ccc(C#Cc3ccc(-n4c5ccc(C(C)(C)C)cc5c5cc(C(C)(C)C)ccc54)cc3)cc2)cc1,437 nm
6,CC(C)(C)c1ccc(-n2c(-c3ccc(-c4ccc(N(c5ccccc5)c5ccccc5)cc4)cc3)nc3c4ccccc4c4ccccc4c32)cc1,442 nm
7,COc1ccc(C#Cc2c3cc4ccccc4cc3c(C#Cc3ccc(OC)cc3)c3cc4ccccc4cc23)cc1,706 nm
8,N#C/C(=C\c1ccc(C#N)cc1)c1nc(-c2ccccc2)cs1,490 nm
9,Cc1ccc(C(=O)c2c(C)c3ccc4cccc5c6cccc7ccc2c(c76)c3c45)cc1,450 nm

# Same assay, conditions: in OCC(O)CO
row,emission maximum,SMILES
1,372 nm,Nc1ncnc2c1c(-c1ccc3ccccc3c1)nn2[C@H]1C[C@H](O)[C@@H](CO)O1

# Same assay, conditions: in OCCO
row,emission maximum,SMILES
1,365 nm,Nc1ncnc2c1c(-c1ccc3ccccc3c1)nn2[C@H]1C[C@H](O)[C@@H](CO)O1
